Laboratory results published in patent publication US20260062443A1 (ALEXION PHARMACEUTICALS, INC., priority 2022, published 2026).

These compounds were tested against T1, Human complement C1s enzyme (Homo sapiens, UniProt P09871) (assay: Human C1s enzyme assay). Conditions: human complement C1s enzyme 1.16 nM, substrate Z-L-Lys-SBzl 100 μM, 5 min preincubation; read-out: IC50 (Stars), C1s Inhibiting Activity.
T1 sequence (P09871 438-688 limits assumed): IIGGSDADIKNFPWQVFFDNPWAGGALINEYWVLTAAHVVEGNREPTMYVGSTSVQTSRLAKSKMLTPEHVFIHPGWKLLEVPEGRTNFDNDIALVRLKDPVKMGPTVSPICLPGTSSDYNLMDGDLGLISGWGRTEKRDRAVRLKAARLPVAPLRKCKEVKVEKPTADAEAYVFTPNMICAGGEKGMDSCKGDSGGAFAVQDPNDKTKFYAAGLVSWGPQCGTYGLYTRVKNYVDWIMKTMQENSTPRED
T1 sequence (P09871 16-437 partner limits assumed): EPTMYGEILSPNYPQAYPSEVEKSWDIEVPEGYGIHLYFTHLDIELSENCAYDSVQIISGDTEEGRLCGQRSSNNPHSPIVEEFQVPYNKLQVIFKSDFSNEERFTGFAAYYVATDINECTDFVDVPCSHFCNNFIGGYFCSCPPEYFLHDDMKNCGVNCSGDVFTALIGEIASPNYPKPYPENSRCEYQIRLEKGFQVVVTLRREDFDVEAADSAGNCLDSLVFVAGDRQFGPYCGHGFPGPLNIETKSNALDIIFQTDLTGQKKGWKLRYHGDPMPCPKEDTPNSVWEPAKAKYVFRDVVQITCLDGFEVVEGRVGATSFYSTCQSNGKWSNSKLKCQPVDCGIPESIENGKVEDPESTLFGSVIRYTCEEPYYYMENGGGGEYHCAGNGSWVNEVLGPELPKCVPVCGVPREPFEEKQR
Assay type: biochemical
Outline: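 IC50 from nonlinear regression of reaction rates versus compound concentration, with rates taken from A405 recorded at 30 s intervals over 30 min after adding 100 μM Z-L-Lys-SBzl plus 100 μM DTNB. Enzyme was human C1s purified from serum, 1.16 nM, given 5 min compound preincubation at room temperature, pH 7.5 Tris/1 M NaCl.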

SMILES | IC50 [nM]
C[C@@]12C[C@@H]1N(C(=O)CNC(=O)CCCOc1ccccc1)[C@H](C(=O)N[C@H]1CCn3c(CN)ccc31)C2 [Compound 69, (1S,3S,5S)-N-((S)-5-(aminomethyl)-2,3-dihydro-1H-pyrrolizin-1-yl)-5-methyl-2-((4-phenoxybutanoyl)glycyl)-2-azabicyclo[3.1.0]hexane-3-carboxamide] | > 1000
COC[C@@]1(F)C[C@@H](C(=O)N[C@H](C)c2cc3cnccc3[nH]2)N(C(=O)CNC(=O)c2ccc(-c3ccc(F)cc3F)cc2)C1 [Compound 70, (2S,4R)-N-((R)-1-(1H-pyrrolo[3,2-c]pyridin-2-yl)ethyl)-1-((2′,4′-difluoro-[1,1′-biphenyl]-4-carbonyl)glycyl)-4-fluoro-4-(methoxymethyl)pyrrolidine-2-carboxamide] | > 1000
CO[C@@H]1C[C@@H](C(=O)N[C@H](C)c2cc3cnccc3[nH]2)N(C(=O)CNC(=O)c2ccc3c(c2)-c2ccccc2C3(F)F)C1 [Compound 71, (2S,4R)-N-((R)-1-(1H-pyrrolo[3,2-c]pyridin-2-yl)ethyl)-1-((9,9-difluoro-9H-fluorene-3-carbonyl)glycyl)-4-methoxypyrrolidine-2-carboxamide] | < 100
C[C@@H](NC(=O)[C@@H]1C[C@@H](S(C)(=O)=O)CN1C(=O)CNC(=O)c1ccc2c(c1)-c1ccccc1C2(F)F)c1cc2cnccc2[nH]1 [Compound 72, (2S,4R)-N-((R)-1-(1H-pyrrolo[3,2-c]pyridin-2-yl)ethyl)-1-((9,9-difluoro-9H-fluorene-3-carbonyl)glycyl)-4-(methylsulfonyl)pyrrolidine-2-carboxamide] | < 100
COC[C@@]1(F)C[C@@H](C(=O)N[C@H](C)c2cc3cnccc3[nH]2)N(C(=O)CNC(=O)c2ccc3c(c2)-c2ccccc2C3(F)F)C1 [Compound 73, (2S,4R)-N-((R)-1-(1H-pyrrolo[3,2-c]pyridin-2-yl)ethyl)-1-((9,9-difluoro-9H-fluorene-3-carbonyl)glycyl)-4-fluoro-4-(methoxymethyl)pyrrolidine-2-carboxamide] | < 100
C[C@@H](NC(=O)[C@@H]1C[C@]2(C)C[C@@H]2N1C(=O)CNC(=O)c1ccc2c(c1)-c1ccccc1C2(F)F)c1cc2cnccc2[nH]1 [Compound 76, (1S,3S,5S)-N-((R)-1-(1H-pyrrolo[3,2-c]pyridin-2-yl)ethyl)-2-((9,9-difluoro-9H-fluorene-3-carbonyl)glycyl)-5-methyl-2-azabicyclo[3.1.0]hexane-3-carboxamide] | > 1000
C[C@@H](NC(=O)[C@@H]1C[C@@H](OC(F)F)CN1C(=O)CNC(=O)c1ccc2c(c1)-c1ccccc1C2(F)F)c1cc2cnccc2[nH]1 [Compound 77, (2S,4R)-N-((R)-1-(1H-pyrrolo[3,2-c]pyridin-2-yl)ethyl)-1-((9,9-difluoro-9H-fluorene-3-carbonyl)glycyl)-4-(difluoromethoxy)pyrrolidine-2-carboxamide] | < 100
C[C@@]12C[C@@H]1N(C(=O)CNC(=O)CCCOc1ccccc1)[C@H](C(=O)N[C@@H]1CCn3c(CN)ccc31)C2 [Compound 78, (1S,3S,5S)-N-((R)-5-(aminomethyl)-2,3-dihydro-1H-pyrrolizin-1-yl)-5-methyl-2-((4-phenoxybutanoyl)glycyl)-2-azabicyclo[3.1.0]hexane-3-carboxamide] | 100 to 1000
C[C@@H](NC(=O)[C@@H]1CC2(CN1C(=O)CNC(=O)c1ccc(-c3ccccc3)cc1)OCCO2)c1cc2cnccc2[nH]1 [Compound 79, (S)-N-((R)-1-(1H-pyrrolo[3,2-c]pyridin-2-yl)ethyl)-7-(([1,1′-biphenyl]-4-carbonyl)glycyl)-1,4-dioxa-7-azaspiro[4.4]nonane-8-carboxamide] | 100 to 1000
Cc1cc(C(=O)NCC(=O)N2C[C@H](OC(F)F)C[C@H]2C(=O)N[C@H](C)c2cc3cnccc3[nH]2)ccc1Oc1ccccc1 [Compound 81] | < 100

Next, values leading:

IC50 [nM] | SMILES
100 to 1000 | C[C@@H](NC(=O)[C@@H]1C[C@@H](S(C)(=O)=O)CN1C(=O)CNC(=O)c1ccc(-c2ccccc2)cc1)c1cc2cnccc2[nH]1 [Compound 82, (2S,4R)-N-((R)-1-(1H-pyrrolo[3,2-c]pyridin-2-yl)ethyl)-1-(([1,1′-biphenyl]-4-carbonyl)glycyl)-4-(methylsulfonyl)pyrrolidine-2-carboxamide]
100 to 1000 | COC[C@@]1(F)C[C@@H](C(=O)N[C@H](C)c2cc3cnccc3[nH]2)N(C(=O)CNC(=O)c2ccc(-c3ccccc3)cc2)C1 [Compound 83, (2S,4R)-N-((R)-1-(1H-pyrrolo[3,2-c]pyridin-2-yl)ethyl)-1-(([1,1′-biphenyl]-4-carbonyl)glycyl)-4-fluoro-4-(methoxymethyl)pyrrolidine-2-carboxamide]
> 1000 | C[C@@H](NC(=O)[C@@H]1C[C@](F)(CF)CN1C(=O)CNC(=O)c1ccc(-c2ccccc2)cc1)c1cc2cnccc2[nH]1 [Compound 84, (2S,4R)-N-((R)-1-(1H-pyrrolo[3,2-c]pyridin-2-yl)ethyl)-1-(([1,1′-biphenyl]-4-carbonyl)glycyl)-4-fluoro-4-(fluoromethyl)pyrrolidine-2-carboxamide]
> 1000 | C[C@@H](NC(=O)[C@@H]1C[C@@H](S(C)(=O)=O)CN1C(=O)CNC(=O)c1ccc(-c2ccc(F)cc2F)cc1)c1cc2cnccc2[nH]1 [Compound 85, (2S,4R)-N-((R)-1-(1H-pyrrolo[3,2-c]pyridin-2-yl)ethyl)-1-((2′,4′-difluoro-[1,1′-biphenyl]-4-carbonyl)glycyl)-4-(methylsulfonyl)pyrrolidine-2-carboxamide]
100 to 1000 | C[C@@H](NC(=O)[C@@H]1C[C@](F)(CF)CN1C(=O)CNC(=O)c1ccc2c(c1)-c1ccccc1C2(F)F)c1cc2cnccc2[nH]1 [Compound 86, (2S,4R)-N-((R)-1-(1H-pyrrolo[3,2-c]pyridin-2-yl)ethyl)-1-((9,9-difluoro-9H-fluorene-3-carbonyl)glycyl)-4-fluoro-4-(fluoromethyl)pyrrolidine-2-carboxamide]
100 to 1000 | C[C@@H](NC(=O)[C@@H]1C[C@@H](S(C)(=O)=O)CN1C(=O)CNC(=O)c1ccc(Oc2ccc(F)cc2)cc1)c1cc2cnccc2[nH]1 [Compound 87, (2S,4R)-N-((R)-1-(1H-pyrrolo[3,2-c]pyridin-2-yl)ethyl)-1-((4-(4-fluorophenoxy)benzoyl)glycyl)-4-(methylsulfonyl)pyrrolidine-2-carboxamide]
> 1000 | C[C@@H](NC(=O)[C@@H]1C[C@](F)(CF)CN1C(=O)CNC(=O)c1ccc(Oc2ccc(F)cc2)cc1)c1cc2cnccc2[nH]1 [Compound 89, (2S,4R)-N-((R)-1-(1H-pyrrolo[3,2-c]pyridin-2-yl)ethyl)-4-fluoro-4-(fluoromethyl)-1-((4-(4-fluorophenoxy)benzoyl)glycyl)pyrrolidine-2-carboxamide]
< 100 | C[C@@H](NC(=O)[C@@H]1C[C@@H](OC(F)F)CN1C(=O)CNC(=O)c1ccc(-c2ccc(F)cc2F)cc1)c1cc2cnccc2[nH]1 [Compound 90, (2S,4R)-N-((R)-1-(1H-pyrrolo[3,2-c]pyridin-2-yl)ethyl)-1-((2′,4′′-difluoro-[1,1′-biphenyl]-4-carbonyl)glycyl)-4-(difluoromethoxy)pyrrolidine-2-carboxamide]
< 100 | C[C@@H](NC(=O)[C@@H]1C[C@@H](OC(F)F)CN1C(=O)CN1Cc2cc(-c3ccc(F)cc3F)ccc2C1=O)c1cc2cnccc2[nH]1 [Compound 91, (2S,4R)-N-((R)-1-(1H-pyrrolo[3,2-c]pyridin-2-yl)ethyl)-4-(difluoromethoxy)-1-(2-(5-(2,4-difluorophenyl)-1-oxoisoindolin-2-yl)acetyl)pyrrolidine-2-carboxamide]
< 100 | O=C(NCC(=O)N1C[C@H](OC(F)F)C[C@H]1C(=O)N[C@H](CO)c1cc2cnccc2[nH]1)c1ccc2c(c1)Oc1ccccc1S2 [Compound 93, (2S,4R)-4-(difluoromethoxy)-N-((S)-2-hydroxy-1-(1H-pyrrolo[3,2-c]pyridin-2-yl)ethyl)-1-((phenoxathiine-3-carbonyl)glycyl)pyrrolidine-2-carboxamide]
> 1000 | O=C(NCC(=O)N1CC2(C[C@H]1C(=O)N[C@H](CO)c1cc3cnccc3[nH]1)OCCO2)c1ccc(Oc2ccc(F)cc2)cc1 [Compound 94, (S)-7-((4-(4-fluorophenoxy)benzoyl)glycyl)-N-((S)-2-hydroxy-1-(1H-pyrrolo[3,2-c]pyridin-2-yl)ethyl)-1,4-dioxa-7-azaspiro[4.4]nonane-8-carboxamide]
> 1000 | O=C(NCC(=O)N1C[C@@](F)(CF)C[C@H]1C(=O)N[C@H](CO)c1cc2cnccc2[nH]1)c1ccc(Oc2ccc(F)cc2)cc1 [Compound 95, (2S,4R)-4-fluoro-4-(fluoromethyl)-1-((4-(4-fluorophenoxy)benzoyl)glycyl)-N-((S)-2-hydroxy-1-(1H-pyrrolo[3,2-c]pyridin-2-yl)ethyl)pyrrolidine-2-carboxamide]
